# In patent US5500344A, “Serine protease and uses thereof” (The United States of America as represented by the …, priority 1992, dated 1996):
# Non-standard residues stand in square brackets, D forms with d. Residues, ends and D or L forms follow the SMILES beside them. *: point of attachment. Nle = CCCC[C@H](N)C(=O)O; Boc = CC(C)(C)OC(=O)*; SBn = c1ccc(CS*)cc1
# How the values were obtained:
# Assay type in all cases: biochemical
# Asp-ase = target: T1, Asp-ase (Rattus norvegicus, UniProt P18291); assay: Initial rates of peptide thiobenzyl ester substrate hydrolysis by HPLC-purified Asp-ase; settings: [S] 100-133 μM, 0.1 M Hepes, 0.01 M CaCl2, pH 7.5, 8% Me2SO, 25° C.
# T1 construct: Asp-ase purified by HPLC as previously described; endogenous in cells; host or cells: rat RNK LGL leukemia cells, cytolytic granules, HPLC-purified (Sayers et al. 1992)
# T1 sequence (P18291 21-248): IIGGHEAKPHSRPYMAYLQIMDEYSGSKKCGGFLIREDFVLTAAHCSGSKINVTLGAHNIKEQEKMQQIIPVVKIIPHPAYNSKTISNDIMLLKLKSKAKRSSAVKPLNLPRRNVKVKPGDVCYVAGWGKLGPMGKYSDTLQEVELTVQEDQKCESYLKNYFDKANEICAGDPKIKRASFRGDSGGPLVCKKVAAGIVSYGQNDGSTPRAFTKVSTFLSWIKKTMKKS
# Description: (§1) Briefly, 50 μl of sample was added to 100 μl of 1 mM DTNB, made up in 10 mM Hepes, 1 mM CaCl2, 1 mM MgCl2, pH7.2. The reaction was initiated by the addition of 50 μl of BLT (Sigma) to give a final concentration of 500 μM. For Metase determinations, 50 μl of dilutions of the sample in 0.1M Hepes, 0.05M CaCl2, pH7.5 were added to 100 μl of 1 mM DTNB and the reaction was initiated by the addition of 50 μl of Boc-Ala-Ala-Met-S Benzyl (Bzl) to give a final concentration of 150 μM. The duration of the assay depended on color development, the rate of which was measured (0.D410) on a Dynatech MR 5000 microplate reader. Controls of sample and DTNB alone or DTNB and substrate alone were run. For more sensitive comparisons of enzymatic activities, peptide thiobenzyl ester substrates were used to measure protease activities. The chymase substrate Suc-Phe-Leu-Phe-SBzl was purchased from BACHEM Bioscience Inc., Philadelphia, Pa. […] Boc-Ala-Ala-Asp-SBzl is the substrate for Asp-ase and peptide thiobenzyl esters containing Met, Leu or Nle are substrates for Met-ase SP. […] The initial rates were measured at 324 nm using a Beckman 35 spectrophotometer when 10-25 μl of an enzyme stock solution was added to a cuvette containing 2.0 ml of buffer, 150 μl of 4,4'-dithiodipyridine and 25 μl of substrate. The same volume of substrate and 4,4'-dithiodipyridine were added to the reference cell in order to compensate for the background hydrolysis rate of the substrates. Initial rates were measured in duplicate for each substrate concentration and were averaged in each case.
# (§2) 10 μl of enzyme solution was added to […]
# Tryptase = target: T2, Tryptase (Rattus norvegicus, UniProt P49864); assay: Initial rates of peptide thiobenzyl ester substrate hydrolysis by HPLC-purified Tryptase (HPLC fraction 56); settings: 10 μl enzyme solution (HPLC fraction 56); [S] 100-133 μM; pH 7.5, 25° C.
# T2 construct: The BLT-esteraseactivity was found in fractions 49 and 56; endogenous in cells; host or cells: rat RNK-16 NK/LGL leukemia cells, cytolytic granules, HPLC fraction 56
# T2 sequence (P49864 26-258): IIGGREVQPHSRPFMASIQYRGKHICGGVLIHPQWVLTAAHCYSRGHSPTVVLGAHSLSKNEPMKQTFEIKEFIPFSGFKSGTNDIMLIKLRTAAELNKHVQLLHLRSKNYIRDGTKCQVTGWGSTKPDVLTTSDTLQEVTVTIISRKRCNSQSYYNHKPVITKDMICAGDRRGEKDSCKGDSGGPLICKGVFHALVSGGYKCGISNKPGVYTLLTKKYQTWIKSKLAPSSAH
# Description: as §1, §2
# Met-ase = target: T3, Met-ase (Rattus norvegicus, UniProt Q03238); assay: Initial rates of peptide thiobenzyl ester substrate hydrolysis by HPLC-purified Met-ase (HPLC fraction 104); settings: [S] 100-133 μM, pH 7.5, 25° C.
# T3 construct: endogenous in cells; host or cells: rat RNK-16 LGL leukemia cells, cytolytic granules, HPLC fraction 104
# T3 sequence (Q03238 21-258 limits assumed): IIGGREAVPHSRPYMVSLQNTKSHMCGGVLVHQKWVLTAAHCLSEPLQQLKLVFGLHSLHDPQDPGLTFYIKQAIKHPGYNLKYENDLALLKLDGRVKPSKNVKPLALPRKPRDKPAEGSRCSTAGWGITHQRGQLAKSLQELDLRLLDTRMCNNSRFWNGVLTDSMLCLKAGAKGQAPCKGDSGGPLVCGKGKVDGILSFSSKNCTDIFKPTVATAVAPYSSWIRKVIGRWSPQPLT
# Description: as §1, §2
# [1] = 10 μl enzyme solution (HPLC fraction 104)
# [2] = 25 μl enzyme solution (HPLC fraction 104)
SMILES,"Initial Rates, Asp-ase (Asp-ase; 10 μl enzyme solution)","Initial Rates, Asp-ase (Asp-ase; 25 μl enzyme solution)","Initial Rates, Tryptase (Tryptase)","Initial Rates, Met-ase (Met-ase; [1])","Initial Rates, Met-ase (Met-ase; [2])"
"C[C@H](NC(=O)OC(C)(C)C)C(=O)N[C@@H](C)C(=O)N[C@@H](CC(=O)O)C(=O)SCc1ccccc1 [Boc--Ala--Ala--Asp--SBz1, Boc-Ala-Ala-Asp-SBzl] (Boc-Ala-Ala-Asp-SBn)",12.6 nM/s,44.6 nM/s,0 nM/s,0 nM/s,–
CC(C)C[C@H](NC(=O)[C@H](C)NC(=O)[C@H](C)NC(=O)OC(C)(C)C)C(=O)SCc1ccccc1 [Boc--Ala--Ala--Leu--SBz1] (Boc-Ala-Ala-Leu-SBn),–,–,–,2.9 nM/s,–
"CSCC[C@H](NC(=O)[C@H](C)NC(=O)[C@H](C)NC(=O)OC(C)(C)C)C(=O)SCc1ccccc1 [Boc--Ala--Ala--Met--SBz1, Boc-Ala-Ala-Met-S Benzyl (Bzl)] (Boc-Ala-Ala-Met-SBn)",0 nM/s,–,0 nM/s,4.2 nM/s,13.7 nM/s
CCCC[C@H](NC(=O)[C@H](C)NC(=O)[C@H](C)NC(=O)OC(C)(C)C)C(=O)SCc1ccccc1 [Boc--Ala--Ala--Nle--SBz1] (Boc-Ala-Ala-[Nle]-SBn),–,–,–,3.9 nM/s,15.2 nM/s
C[C@H](NC(=O)OC(C)(C)C)C(=O)N[C@@H](C)C(=O)N[C@@H](CO)C(=O)SCc1ccccc1 [Boc--Ala--Ala--Ser--SBz1] (Boc-Ala-Ala-Ser-SBn),1.3 nM/s,6.7 nM/s,0.4 nM/s,0 nM/s,–
